# Source: patent US7407947B2, “Amphoteric sterols and the use thereof” (Novosom AG, priority 2001, dated 2008)
# Assay: Isoelectric point of the sterol derivative
# Type: physicochemical
# Conditions: stated as very close to pH 6.5
smiles,measurement,value
"CC(C)CCCC(C)C1CCC2C3CC=C4CC(OC(=O)CCC(=O)NC(Cc5cnc[nH]5)C(=O)O)CCC4(C)C3CCC12C [Hist-Chol, Cholesteryl-L-histidyl Succinate]",isoelectric point,~6.5
